The text below walks through data of patent US6967196B1, “Sulfonamide compounds and uses thereof” (Bristol-Myers Squibb Company, priority 1999, dated 2005).

The first assay deals with amyloid β production in transfected H4 (human neuroglioma) cells stably expressing APP constructs. The assay is described as follows: In vitro cell-based assay of inhibitors of amyloid β production (ELISA). The note with it: transfected H4 cells stably expressing APP constructs; approximately 16 hours incubation; amyloid β in medium by ELISA; read-out: ACTIVITY (IC50, inhibition of amyloid β production). The protocol:
In Vitro Cell-Based Assay of Inhibitors of Amyloid β Production
Transfected H4 (human neuroglioma) cells stably expressing APP constructs are used to identify and assess inhibitors of Aβ production. In brief, cells lines are exposed to compounds, and the effect of each compound on amyloid β production is determined by measuring the amount of amyloid β produced using an enzyme linked immunosorbent assay (ELISA) that detects amyloid β (see, for example, Seubert et al., (1992) Nature, 359:325-327).
Transfected cells that stably express wild-type and variant forms of APP are plated in 96-well format plates at a density sufficient for the rapid detection of the secreted amyloid β (experimentally predetermined for a particular stable cell population). Cells are plated at least six hours prior to the introduction of the test compound at which time the growth medium is replaced by fresh medium containing the compound to be tested. All synthetic agents are initially screened at doses ranging from 10-100 μM. Higher dilutions of agents can be used to minimize cytotoxicity. Incubation of cells with a test compound continues for approximately 16 hours at which time aliquots of medium from each well are removed and assayed for amyloid β.
ELISA is carried out by methods known in the art (see, e.g., Haass et al., Antibodies: A Laboratory Manual, Harlow and lane, Editors, Cold Spring Harbor Press, 1988) The capture antibody is typically a mouse monoclonal (IgG1/kβ-APPa) which recognizes the carboxyl terminal epitope of amyloid β. The specificity of the capture antibody insures measurement of amyloid β without interference from other secreted APP fragments that share amino acid sequence (amyloid β 1-16) homology with amyloid β but lack the carboxy-terminal region. The detecting antibody is typically an affinity-purified rabbit polyclonal antibody that is specific for the amino terminus of amyloid β.
Results from test compounds are compared to results obtained when cells are treated with control agents. Amyloid β levels are determined by comparison to a standard curve obtained by subjecting a range of known amounts of amyloid β to the ELISA.
A compound is identified as “active” when it inhibits cellular production of amyloid β relative to levels in control samples by at least 50% at the initial tested concentration without significant cytotoxicity. Active compounds are then assayed in dose-response experiments to determine the lowest dose of compound necessary for inhibition of amyloid β production.
As to “4-chloro-N-(2,5-dichlorophenyl)-N-[3-[2-[4-chloro-N-(2,5-dichlorophenyl)-N-[(3-amino)-1(R)-methylpropyl]benzenesulfonamide]-3,4-dioxo-1-cyclobutenyl)amine-1(R)- [Example 1143]”, the IC50 was in the range of 100 to 500 nM.
With “4-chloro-N-(2,5-dichlorophenyl)-N-[5-(1,1-dioxido-4-thiomorpholinyl)-1(R)-methylpropyl]benzenesulfonamide [Example 1104]”, the IC50 was no more than 25 nM.
Consider “4-chloro-N-(2,5-dichlorophenyl)-N-[5-[[2-[(methylsulfonyl)-1-piperidinyl]-1(R)-methylpentyl]benzenesulfonamide [Example 1116]”, for which the IC50 is 25 to 50 nM.
For “4-chloro-N-(2,5-difluorophenyl)-N-[3-[2-[4-chloro-N-(2,5-difluorophenyl)-N-[(3-amino)-1(R)-methylpropyl]benzenesulfonamide]-3,4-dioxo-1-cyclobutenyl)amine-1(R)- [Example 1139]”, the IC50 is 100 to 500 nM.
With “4-chloro-N-(5-chloro-2-fluorophenyl)-N-[3-[2-[4-chloro-N-(5-chloro-2-fluorophenyl)-N-[(3-amino)-1(R)-methylpropyl]benzenesulfonamide]-3,4-dioxo-1-cyclobutenyl)amine-1(R)- [Example 1130]”, the IC50 lay within 50 to 100 nM.

Staying with this assay, now noted: transfected H4 cells stably expressing APP; approx. 16 h incubation; amyloid β in medium by ELISA; read-out: ACTIVITY (IC50, inhibition of amyloid β production).
Turning to “4-chloro-N-{3-[2-(1-{[(4-chlorophenyl)sulfonyl]-2,5-difluoroanilino}ethyl)phenoxy]propyl}-N-methyl-2-nitrobenzamide [Example 636]”, the IC50 fell in the range of 100 to 500 nM.
Turning to “4-chloro-N-{3-[2-(1-{[(4-chlorophenyl)sulfonyl]-2,5-difluoroanilino}ethyl)phenoxy]propyl}-N-methylbenzamide [Example 722]”, the IC50 is 100 to 500 nM.

The same assay, now with this note: transfected H4 cells stably expressing APP; approximately 16 hours incubation; amyloid β in medium by ELISA; Table B; read-out: ACTIVITY (IC50, inhibition of amyloid β production).
With “4-tert-butyl-N-{3-[2-(1-{[(4-chlorophenyl)sulfonyl]-2,5-difluoroanilino}ethyl)phenoxy]propyl}benzamide [Example 274]”, the IC50 was 25 to 50 nM.

The same assay, now with this note: transfected H4 cells stably expressing APP; approximately 16 hours incubation; amyloid β in medium by ELISA; read-out: ACTIVITY (IC50, inhibition of amyloid β production).
Consider “4-chloro-N-(2,5-difluorophenyl)-N-((1R)-1-{2-[3-(1H-imidazol-1-yl)propoxy]-6-methoxybenzyl}benzenesulfonamide hydrochloride [Example 911]”, for which the IC50 is greater than 500 nM.
Regarding “4-chloro-N-(2,5-difluorophenyl)-N-[(1R)-1-(4-[(ethylsulfonyl)amino]butyl}-4-fluorophenyl)ethyl]benzenesulfonamide [Example 1075]”, the IC50 is greater than 500 nM.
“4-chloro-N-(2,5-difluorophenyl)-N-{2-[3-(1-piperidinyl)propyl]benzyl}-N-phenylbenzenesulfonamide [Example 1044]”: the IC50 was greater than 500 nM.
For the substance “4-chloro-N-{3-[2-(1-{[(4-chlorophenyl)sulfonyl]-2,5-difluoroanilino}ethyl)phenoxy]propyl}-2-nitrobenzamide [Example 947]”, the IC50 is greater than 500 nM.
The same measure, in the same setting: then “4-chloro-N-{3-[2-(1-{[(4-chlorophenyl)sulfonyl]-2,5-difluoroanilino}ethyl)phenoxy]propyl}-N-methyl-3-nitrobenzenesulfonamide [Example 807]”, with 100 to 500 nM.
As to “4-chloro-N-{3-[2-(1-{[(4-chlorophenyl)sulfonyl]-2,5-difluoroanilino}ethyl)phenoxy]propyl}benzamide [Example 811]”, the IC50 was in the range of 100 to 500 nM.
For the substance “4-chloro-N-{3-[2-({[(4-chlorophenyl)sulfonyl]-2,5-difluoroanilino}methyl)phenoxy]propyl}-N-methylbenzamide [Example 970]”, the IC50 is greater than 500 nM.
The same measure, in the same setting: then “5-[2-((1R)-1-{[(4-chlorophenyl)sulfonyl]-2,5-difluoroanilino}ethyl)-5-fluorophenyl]butanoic acid [Example 1070]”, with greater than 500 nM.
